{"source": "paper PMC5154303", "about": "“Flavonol and imidazole derivatives block HPV16 E6 activities and reactivate apoptotic pathways in HPV^+ cells” (Cell Death & Disease, 2016)", "assay_type_in_all_cases": "cell-based, human", "key": {"[1]": {"system": "UMSCC29", "assay": "TRAIL-induced cell death in HPV− HNSCC line UMSCC29 (MTT)", "details": "HPV− #29, myricetin 0–200 μM or spinacine 0–100 μM, 50 ng/ml TRAIL", "description": "(§1) Figure 7 Myricetin and spinacine (5) can re-sensitize HPV^+, but not HPV^−, head and neck cancer cell lines to treatment with TRAIL. (a) Both HPV^− and HPV^+ HN cancer cell lines display resistance to TRAIL treatment. (b) HPV^− (UMSCC 29 and SCC 84) and (c) HPV^+ (UMSCC 47, UPCI-SCC90-UP-Clone 35, and UM-SCC47-TC-Clone 3) head and neck cancer cell lines (2 × 10^4 cells per well) were seeded into 96-well plates and allowed to incubate overnight, and then cells were pretreated with myricetin (0–200 μM) or spinacine (0–100 μM) for 4 h. […] Cell viability was measured by the MTT assay, and the viability of cells untreated with small molecules was set at 100%. Experiments were performed in triplicate, and error bars indicate the S.D.\n(§2) The extracellular domain of human TRAIL was cloned into a pTriEx expression plasmid containing N-terminal Hisx6 tag. His-TRAIL was expressed in the E. coli BL-21 pLys strain and purified as previously described. Doxorubicin and cisplatin were purchased from Sigma. His-TRAIL, doxorubicin, and cisplatin were diluted in PBS to the desired concentration before using. […] All experiments were repeated at least three times (three biological replicates, carried out on different days), with each experimental group measured in triplicate within each of these individual experiments. […]"}, "[2]": {"system": "UPCI-SCC90-UP-Clone 35", "assay": "Sensitization to doxorubicin in HPV+ HNSCC line UPCI-SCC90-UP-Clone 35 (MTT)", "details": "HPV+ #90, 12.5 μM compound 4 h, 2 μM doxorubicin", "description": "(§3) Figure 8 Myricetin and spinacine (5) can re-sensitize HPV^+, but not HPV^−, HNSCC cell lines to treatment with doxorubicin. Two HPV^− (UMMSCC 29 and SCC 84) and three HPV^+ (UMSCC 47, UPCI-SCC90-UP-Clone 35, and UM-SCC47-TC Clone 3) head and neck cancer cell lines (2 × 10^4 cells per well) were seeded into 96-well plates and allowed to incubate overnight, and then cells were pretreated with myricetin or spinacine (0–12.5 μM) for 4 h. In all, 2 μM of doxorubicin was added, and the cells were allowed to incubate overnight. Cell viability was measured by MTT assay, and the viability of cells untreated with small molecules was set at 100%. Experiments were performed in triplicate, and error bars indicate the S.D.\nas §2"}, "[3]": {"system": "SCC84", "assay": "TRAIL-induced cell death in HPV− HNSCC line SCC84 (MTT)", "details": "HPV− #84, myricetin 0–200 μM or spinacine 0–100 μM, 50 ng/ml TRAIL", "description": "as §1, §2"}, "[4]": {"system": "UMSCC 47", "assay": "Sensitization to doxorubicin in HPV+ HNSCC line UMSCC 47 (MTT)", "details": "HPV+ #47, 12.5 μM compound 4 h, 2 μM doxorubicin", "description": "as §3, §2"}, "[5]": {"system": "SCC 84", "assay": "Sensitization to doxorubicin in HPV− HNSCC line SCC 84 (MTT)", "details": "HPV− #84, compound 0–12.5 μM, 2 μM doxorubicin", "description": "as §3, §2"}, "[6]": {"system": "UM-SCC47-TC-Clone 3", "assay": "Sensitization to doxorubicin in HPV+ HNSCC line UM-SCC47-TC-Clone 3 (MTT)", "details": "HPV+ #47CL3, 12.5 μM compound 4 h, 2 μM doxorubicin", "description": "as §3, §2"}, "[7]": {"system": "caspase 8", "assay": "Caspase 8 level in SiHa cells by immunoblot", "details": "24 h", "description": "Figure 6 Treatment with myricetin and spinacine (5) increases cellular levels of caspase 8 and p53. (a) SiHa cells (1 × 10^6 per well) were seeded into a six-well plate and allowed to incubate overnight. The indicated concentrations of myricetin and spinacine were added, and then cells were incubated for 24 h. Cells were then washed in 1 × PBS and then harvested, and the resulting level of caspase 8 was measured by immunoblot. (b) SiHa and C33A cells (1 × 10^6 per well) were seeded into a six-well plate and allowed to incubate overnight. In all, 200 μM of myricetin and 100 μM spinacine were added together with 4 μg/ml mitomycin C and incubated for 24 h. The resulting level of p53 was measured by enzyme-linked immunosorbent assay, and the level of p53 found in untreated cells was set at 100%. Experiments were performed in triplicate, and error bars indicate the S.D.\nCells (1 × 10^6) were collected and washed with PBS. All liquid was removed by centrifugation at 3000 r.p.m. for 5 min at 4 °C. […] Signals were measured using the Odyssey Infrared Imaging system (LI-COR Biosciences) and expressed in relative light units."}}}
{"smiles": "O=C(O)C1Cc2[nH]cnc2CN1", "note": "(centres unmarked) [Spinacine (5), 4,5,6,7-tetrahydro-1H-imidazo[4,5–c]pyridine-6-carboxylic acid]", "values": [{"measurement": "response to TRAIL in presence and absence of compound", "setting": "[1]", "value": "resistant"}, {"measurement": "sensitization to doxorubicin", "setting": "[2]", "value": "up to 50%"}, {"measurement": "response to TRAIL in presence and absence of compound", "setting": "[3]", "value": "resistant"}, {"measurement": "sensitization to doxorubicin", "setting": "[4]", "value": "up to 50%"}, {"measurement": "response to doxorubicin in presence and absence of compound", "setting": "[5]", "value": "resistant"}, {"measurement": "sensitization to doxorubicin", "setting": "[6]", "value": "up to 50%"}, {"measurement": "caspase 8 level", "setting": "[7]; spinacine at 50 to 200 μM", "value": "increase"}]}
{"smiles": "O=c1c(O)c(-c2cc(O)c(O)c(O)c2)oc2cc(O)cc(O)c12", "note": "[Myricetin, myricetin, reference compound]", "values": [{"measurement": "response to TRAIL in presence and absence of compound", "setting": "[1]", "value": "resistant"}, {"measurement": "response to TRAIL in presence and absence of compound", "setting": "[3]", "value": "resistant"}, {"measurement": "response to doxorubicin in presence and absence of compound", "setting": "[5]", "value": "resistant"}, {"measurement": "caspase 8 level", "setting": "[7]; myricetin at 100 and 200 μM", "value": "increase"}]}
